These results are taken from publication PMC5861052, “Uptake and accumulation of Microcystin-LR based on exposure through drinking water: An animal model assessing the human health risk” (Scientific Reports, 2018).

Data set [1] is classed as in vivo. As to conditions: pig. The procedure:
(§1) This study was performed as described previously using twelve male Duroc pigs, six control and six treated pigs. Housing, diet and treatment were as described previously with the following modifications:
(§2) Animals were subjected to a fourteen-day acclimatization period prior to assignment to control or treated groups. Over the study period, each animal from the treatment group received a daily dose of 2 µg toxin/kg body weight MC-LR by oral gavage, 50 times the provisional WHO TDI, with the average dose for the six treated animals outlined in Table 4
(§3) , with the MC-LR for dosing prepared as described above. At day 40 (approximately 5 weeks) treated and control animals were euthanized. Sample collection and storage was as outlined for experiment 1.
(§4) Porcine tissue samples (50 mg) were weighed into 50 mL round bottomed flasks with the conversion and subsequent enrichment of MMPB carried out as outlined in ‘Analysis of conjugated MC-LR in porcine tissue’ (see Supplementary Information online). Samples were initially screened for MMPB, with any samples found to contain toxin quantified by use of a six point extracted matrix matched calibration curve in the range 0.010–0.25 µg/g dw using pooled control tissue of the relevant tissue, with calibrant levels achieved by spiking with the MMPB standard at a concentration of either 0.5 or 0.05 µg/mL after pH adjustment.
Conversion of any bound MC-LR and subsequent extraction was performed according to a modified method derived from Neffling et al. (2010) and developed using 50 mg aliquots of lyophilised homogenised, pooled porcine tissue from the control animals. 50 mg of tissue was weighed into a 50 mL round bottomed flask and 5 mL of oxidation solution at a concentration of 0.1 M was added, comprising both potassium permanganate (KMnO4) and sodium (meta) periodate (NaIO4) at 0.2 M mixed 1:1 v/v. The mixture was stirred at room temperature for 2 h whereby the colour of the solution turned from purple (colour of KMnO4) to red/brown (colour of the reduced product MnO2). A further 4 mL oxidation solution at 0.1 M was added turning the solution back to purple. The reaction was immediately quenched by addition of 1 mL sodium bisulphite solution (40% v/v). Following this, samples were transferred to 15 mL tubes and 10% sulphuric acid was added drop wise until the pH was acidic (~ 2). Samples were then centrifuged at 4 500 rpm for 15 min and the supernatant removed and loaded directly onto SPE cartridges.
Sample enrichment and clean-up was carried out using OASIS PRiME HLB cartridges, with samples loaded onto the cartridges, allowed to drip through under gravity then washed with water and 20% aqueous methanol (v/v). Bound MMPB was eluted into clean glass tubes using 2 x 1.5 mL 80% aqueous methanol (v/v) and the eluents evaporated to dryness under a gentle stream of nitrogen using a turbovap set at 45 °C. Samples were reconstituted in 100 µL 80% aqueous MeOH (v/v) and transferred to a micro vial for analysis.
Analysis of MMPB was performed as described above in ‘Analysis of free MC-LR and MC-LR-GSH in porcine tissues’. Detection and quantification was achieved using MRM, with MMPB seen as the [M + H]^+ ion and the transitions optimised manually as follows:
Separation was achieved using the same column and mobile phases as detailed above in ‘Analysis of free MC-LR in porcine serum’ with the flow rate set at 0.4 ml/min. The gradient used to achieve separation was as described above with the ACN initially held at 10%, then returned to 10% prior to the next injection.

Data set [2] is described as follows: Free MC-LR in porcine tissues, experiment 1 (low dose), UPLC-MS/MS. Conditions: pig, in vivo, po. The source says:
(§5) Following the acclimatization period of seven days, eight healthy pigs were selected randomly for the control group and the remaining eight healthy pigs assigned to the treatment group. Before treatment, animals were examined by a veterinarian to confirm clinical health and then weighed, with the weight and identification of animals in each group recorded. Over the study period (13 weeks), each animal from the treatment group received a low dose of MC-LR daily by oral gavage. The dose administered was 0.04 µg toxin/kg body weight, the provisional World Health Organization Tolerable Daily Intake (WHO TDI), based on the NOAEL derived from the animal experiment conducted by Fawell et al. (1999), with the average dose for the eight treated animals outlined in Table 3. Briefly, a 1 mg/mL solution of MC-LR was prepared by the addition of 250 µL of ethanol followed by 750 µL water. The appropriate dilutions were then performed depending on the weight of the animal to ensure the correct dose was administered in 5 mL of water.
Serum was collected weekly, starting at day -7 from treated and control animals as the pre-bleeds. […]
(§6) In order to quantify any toxins identified, a six-point extracted matrix-matched calibration curve in the range 0.001–0.1 μg/g dw was prepared using pooled control samples of the relevant tissue. […]

The conditions of data set [3]: mouse, in vivo, iv; cited from earlier work. As for the experimental part:
[…]. In another experiment conducted by Robinson et al. (1991) using radiolabelled MC-LR to track its distribution in mice, levels of radiolabelled MC-LR peaked in the liver after only 30 min[52], although in this case the mice were injected intravenously via the tail vein rather than by oral g ...

The nature of data set [4]: Bound MC-LR (MMPB) in porcine liver by Lemieux oxidation, experiment 1. Conditions: pig, in vivo, po.
From the text: as §5, with “Briefly, a 1 mg/mL solution of MC-LR was prepared by the addition of 250 µL of ethanol followed by 750 µL water. The appropriate dilutions were then performed depending on the weight of the animal to ensure the correct dose was administered in 5 mL of water.” left out
as §4, with “adjustment. […]” for “adjustment.”

Data set [5] in a line: Free MC-LR in porcine serum, experiment 2 (high dose), UPLC-MS/MS. Conditions: pig, in vivo, po. As for the experimental part:
as §1, §2
, with the MC-LR for dosing prepared as described above. At day 40 (approximately 5 weeks) treated and control animals were euthanized. Sample collection and storage was as outlined for experiment 1. […]
Analysis was performed using an ACQUITY UPLC i-Class system coupled to a Xevo TQ-S (triple quadrupole MS/MS) Mass Spectrometer (Waters, Manchester, UK). Detection and quantification was achieved using targeted analysis using Multiple Reaction Monitoring (MRM) and operated in ESI^+ mode. Analyte precursor ions were identified as [M + H]^+ for both MC-LR and NOD (IS) with the quantifying (Q) and qualifying (q) ions used as follows:
To quantify any MC-LR detected, a seven point extracted matrix matched calibration curve in the range 0.2-100 ng/mL serum was prepared using the ‘negative’ porcine serum. […]

The nature of data set [6]: Free MC-LR in porcine serum, experiment 1 (low dose), UPLC-MS/MS. Conditions: pig, in vivo, po. The procedure:
The animal studies were performed under licence (PPL 2755 - Chemical contaminants in food producing animals) issued by the Department of Health, Social Services and Public Safety in Northern Ireland (NI) in accordance with the Animal (Scientific Procedures) Act (1986), and under the approval of the Agri-Food and Biosciences Institute (AFBI) Animal Welfare and Ethical Review Body (AWERB) and associated EU Directive 2010/63/EU for animal experiments. The study was performed on behalf of Queen’s University Belfast (QUB) by the Veterinary Sciences Division, Agri-Food and Biosciences Institute, Belfast, Northern Ireland. […]
Following the acclimatization period of seven days, eight healthy pigs were selected randomly for the control group and the remaining eight healthy pigs assigned to the treatment group. Before treatment, animals were examined by a veterinarian to confirm clinical health and then weighed, with the weight and identification of animals in each group recorded. […]
Analysis was performed using an ACQUITY UPLC i-Class system coupled to a Xevo TQ-S (triple quadrupole MS/MS) Mass Spectrometer (Waters, Manchester, UK). Detection and quantification was achieved using targeted analysis using Multiple Reaction Monitoring (MRM) and operated in ESI^+ mode. […]

A short description of data set [7]: Parent ion scan of Adda fragment (m/z 135) in porcine serum. As to conditions: pig, in vivo. As for the experimental part: With MC-LR and its congeners, as well as any potential metabolites of MC-LR having in common the shared Adda group ((2S, 3S, 8S, 9S)-3-amino-9-methoxy-2, 6, 8-trimethyl-10-phenyldeca-4(E), 6(E)-dienoic acid) (Fig. 1)[8], serum samples were analysed for parent ions of Adda, with this fragment having an m/z of 135. This was optimised using the MC-LR standard and indicated a peak at the same retention time as when analysed in MRM mode, with the retention window extended to allow identification of any potential MC-LR metabolites.
A selection of serum sample time points from experiment (1) were chosen (n = 32), with; t = 14, t = 42, t = 70 and t = 98 correlating to the start, one, two and three months of treatment for each animal, as well as serum from all time points (n = 36) for each animal from experiment (2).

The conditions of data set [8]: in vivo, cited from earlier work. The procedure: Looking at the study by Tencalla et al. (1997) in which rainbow trout were dosed with MC-LR also via oral gavage, they estimated the uptake of MC-LR into blood to be approximately 4.4% of the dose administered of 5700 µg MC-LR/kg bw[51]. Based on the findings reported by Tencalla et al. and taking the average bodyweight of the six animals in the final week of dosing in experiment (2) of our study, the average dose administered to the six animals equates to 96 µg of MC-LR per day for the last week. […].

Data set [9] is described as follows: Free MC-LR in porcine tissues, experiment 2 (high dose), UPLC-MS/MS. As to conditions: pig, in vivo, po. The procedure:
as §1, §2, §3
Tissue samples (see Supplementary Information online) (100 mg) were spiked with 10 μL of the NOD (IS) at 0.5 μg/mL and extracted by addition of 1.5 mL of 80% aqueous MeOH (v/v) (0.5% acetic acid v/v), vortex mixed briefly and sonicated at 35–40 °C for 45 min before centrifugation at 16 000 g for 15 min. […]
as §6

Where “and” joins values, the source holds several entries; their conditions need not be identical. Equal entries are not always repeated.

For the compound `COC(Cc1ccccc1)C(C)C(=O)O` (stereo not drawn) [MMPB, 2-methyl-3-methoxy-4-phenylbutyric acid], the “concentration of MMPB detected in liver (average estimated value)” value in data set [1] (livers of T2, T4 and T5, MC-LR oral gavage 2 µg/kg bw daily, Lemieux oxidation, dry weight) was 14.4 ng/g dw.

With Microcystin-LR [MC-LR], in data set [2], the “free MC-LR in liver, kidney, large and small intestine tissues” value was “none of the tissues contained any trace”. The “time at which levels of radiolabelled MC-LR peaked in the liver” value in [3] is on record as 30 min. For the same compound, in data set [1] (in vivo), the “MC-LR present in liver” value was 23.1 µg and 21.9 µg and 34.1 µg; the “Uptake of MC-LR by liver as percentage of the dose administered” value was 1.1% and 0.8% and 1.5%; the “average amount of bound MC-LR accumulated in liver” value is 26.4 ± 5.5 µg; the “average uptake of MC-LR by liver as percentage of total dose administered” value was 1.1%. For the same compound, the “estimated bound MC-LR in liver (average)” value in data set [1] (in vivo) was 23.2 ng/g ww. The “bound MC-LR (MMPB) in liver tissue” value in [4] is on record as “negative”. Besides, in [5], the “free MC-LR in serum” value is given as “negative”. Further, the “free MC-LR in serum” value in data set [6] is under 0.03 ng/mL. For the same compound, the “peaks in parent ion scan of Adda fragment m/z 135 in serum (free MC-LR or MC-LR metabolites)” value in data set [7] is “negative”. For the same compound, in data set [8] (po), the “uptake of MC-LR into blood as percentage of dose administered” value is recorded as “approximately 4.4%” and the “uptake of MC-LR into the liver” value was 1.7%. In addition, in [8], the “half-life in the blood” value is recorded as 3.3 h, the “time after which the liver indicated the presence of MC-LR” value was 1 h and the “time of maximum levels in the liver after exposure” value is recorded as 3 h. For the same compound, the “free MC-LR in all other tissue samples (liver, kidney, small and large intestine, spleen, brain)” value in data set [9] is “free of MC-LR residues”.
